In ChEMBL document CHEMBL3045982, “Design, synthesis and structure-activity relationship of novel coumarin derivatives” (Pest Manag Sci, 2011):

Tests used:
[1] = tested on: Pseudoperonospora cubensis; assay: Fungicidal activity against Pseudoperonospora cubensis at 200 mg/L relative to untreated control; assay type: functional
[2] = tested on: Pseudoperonospora cubensis; assay: Fungicidal activity against Pseudoperonospora cubensis at 50 mg/L relative to untreated control; assay type: functional
[3] = tested on: Pseudoperonospora cubensis; assay: Fungicidal activity against Pseudoperonospora cubensis at 100 mg/L relative to untreated control; assay type: functional
[4] = tested on: Pseudoperonospora cubensis; assay: Fungicidal activity against Pseudoperonospora cubensis at 25 mg/L relative to untreated control; assay type: functional
[5] = tested on: Pseudoperonospora cubensis; assay: Fungicidal activity against Pseudoperonospora cubensis at 6.25 mg/L relative to untreated control; assay type: functional
[6] = tested on: Cytospora; assay: Fungicidal activity against Cytospora mandshurica Miura at 1000 mg/L of 25% compound under field trials condition relative to untreated control; assay type: functional
[7] = tested on: Cytospora; assay: Fungicidal activity against Cytospora mandshurica Miura under green house condition in presence of 98% compound; assay type: functional, organism-based
[8] = tested on: Cytospora; assay: Fungicidal activity against Cytospora mandshurica Miura at 500 mg/L of 20% compound under field trials conditions relative to untreated control; assay type: functional
[9] = tested on: Cytospora; assay: Fungicidal activity against Cytospora mandshurica Miura under green house condition in presence of 20% compound; assay type: functional, organism-based
[10] = tested on: Cytospora; assay: Fungicidal activity against Cytospora mandshurica Miura at 1000 mg/L of 20% compound under field trials condition relative to untreated control; assay type: functional
[11] = tested on: Cytospora; assay: Fungicidal activity against Cytospora mandshurica Miura under green house condition in presence of 96% compound; assay type: functional, organism-based

SMILES	Activity [1] [%]	Activity [2] [%]	Activity [3] [%]	Activity [4] [%]	Activity [5] [%]	Efficacy [6] [%]	EC50 [7] [µg/mL]	Efficacy [8] [%]	EC50 [9] [µg/mL]	Efficacy [10] [%]	EC50 [11] [µg/mL]
CO/C=C(/C(=O)OC)c1ccccc1COc1ccc2c(C(F)(F)F)cc(=O)oc2c1	100	80	95	70	50						
CO/C=C(/C(=O)OC)c1ccccc1COc1ccc2c(C)c(F)c(=O)oc2c1	100	100	100	95	60						
CO/C=C(/C(=O)OC)c1ccccc1COc1ccc2oc(=O)cc(C)c2c1	85	30	60	0	0						
CO/C=C(/C(=O)OC)c1ccccc1COc1ccc2ccc(=O)oc2c1	100	70	100	50	0						
CO/C=C(/C(=O)OC)c1ccccc1COc1ccc2c(C)cc(=O)oc2c1/C(C)=N/OC	30										
CO/C=C(/C(=O)OC)c1ccccc1COc1ccc2c(C)c(C)c(=O)oc2c1	100	100	100	100	85						
CO/C=C(/C(=O)OC)c1ccccc1COc1ccc2c(C)cc(=O)oc2c1	100	100	100	97	45						
CO/C=C(/C(=O)OC)c1ccccc1Oc1cc(Oc2ccccc2C#N)ncn1 [AZOXYSTROBIN]				100	95	73.5	2.78				
CO/C=C(/C(=O)OC)c1ccccc1COc1ccc2c(-c3ccccc3)cc(=O)oc2c1C	95	90	90	50	30						
CO/C=C(/C(=O)OC)c1ccccc1COc1cc2oc(=O)cc(C)c2cc1/C(C)=N\OC	80										
CO/N=C(/C(=O)OC)c1ccccc1COc1ccc2c(C)c(C)c(=O)oc2c1C	95	60	85	50	40						
COC(=O)N(OC)c1ccccc1COc1ccc2c(C)c(C)c(=O)oc2c1	100	100	100	85	65						
CO/C=C(/C(=O)OC)c1ccccc1COc1ccc2c(-c3ccc(C(F)(F)F)cc3)cc(=O)oc2c1	85		70								
CO/C=C(/C(=O)OC)c1ccccc1COc1cccc(C(F)(F)F)n1 [PICOXYSTROBIN]				95	50						
CCCCc1c(C)c2ccc(OCc3ccccc3N(OC)C(=O)OC)cc2oc1=O	100	90	100	75	50						
CCc1cc(=O)oc2cc(OCc3ccccc3/C(=C\OC)C(=O)OC)ccc12	100	100	100	100	50						
CO/C=C(/C(=O)OC)c1ccccc1COc1ccc2c(C(C)C)cc(=O)oc2c1	100	100	100	95	50						
CNC(=O)/C(=N/OC)c1ccccc1COc1ccc2c(C)c(C)c(=O)oc2c1C	95	30	85	20	0						
CO/N=C(/C(=O)OC)c1ccccc1COc1ccccc1C [KRESOXIM-METHYL]				35	0						
CO/N=C(/C(=O)OC)c1ccccc1COc1ccc2c(C)c(Cl)c(=O)oc2c1	100	90	100	85	65						

SMILES	Activity [1] [%]	Activity [2] [%]	Activity [3] [%]	Activity [4] [%]	Activity [5] [%]	Efficacy [6] [%]	EC50 [7] [µg/mL]	Efficacy [8] [%]	EC50 [9] [µg/mL]	Efficacy [10] [%]	EC50 [11] [µg/mL]
CCCCCCc1c(C)c2ccc(OCc3ccccc3/C(=C\OC)C(=O)OC)cc2oc1=O	100	100	100	100	80						
CO/C=C(/C(=O)OC)c1ccccc1COc1ccc2oc(=O)c(C)c(C)c2c1	70										
CO/C=C(/C(=O)OC)c1ccccc1COc1cc2oc(=O)cc(C)c2cc1C(C)=O	90	80	85	50	0						
COC(=O)N(OC)c1ccccc1COc1ccc2c(C)c(C)c(=O)oc2c1C	90	75	80	50	0						
CCCc1cc(=O)oc2cc(OCc3ccccc3/C(=C\OC)C(=O)OC)ccc12	100	100	100	95	55						
CO/C=C(/C(=O)OC)c1ccccc1COc1ccc2c(C)c(Cl)c(=O)oc2c1	100	100	100	100	75						
CO/C=C(/C(=O)OC)c1ccccc1COc1cccc2c(C)c(C)c(=O)oc12	0										
CO/C=C(/C(=O)OC)c1ccccc1COc1ccc2c(-c3ccccc3)cc(=O)oc2c1	100	80	100	60	50						
CO/C=C(/C(=O)OC)c1ccccc1COc1ccc2c3c(c(=O)oc2c1C)CCCC3	50										
CO/C=C(/C(=O)OC)c1ccccc1COc1ccc2c3c(c(=O)oc2c1)CCC3				100	40						
CCCCc1c(C)c2ccc(OCc3ccccc3/C(=C\OC)C(=O)OC)cc2oc1=O [Coumoxystrobin]	100	100	100	100	95			88.5	1.72	97.3	1.83
CCc1c(C)c2ccc(OCc3ccccc3/C(=C\OC)C(=O)OC)cc2oc1=O	100	80	100	20	0						
CO/C=C(/C(=O)OC)c1ccccc1COc1ccc2c(-c3ccc(Cl)nc3)cc(=O)oc2c1	90	75	80	40	0						
CO/C=C(/C(=O)OC)c1ccccc1COc1ccc2c3c(c(=O)oc2c1)CCCC3				100	75						
CCCc1c(C)c2ccc(OCc3ccccc3/C(=C\OC)C(=O)OC)cc2oc1=O	100	30	80	20	0						
CO/C=C(/C(=O)OC)c1ccccc1COc1ccc2c(C)cc(=O)oc2c1C(C)=O	60										
CO/C=C(/C(=O)OC)c1ccccc1COc1ccc2c(-c3ccc(Cl)cc3)cc(=O)oc2c1	70										
CO/C=C(/C(=O)OC)c1ccccc1COc1cc(=O)oc2ccccc12	85	30	70	0	0						
CO/C=C(/C(=O)OC)c1ccccc1COc1ccc2c3c(c(=O)oc2c1C)CCC3	0										
